Results from PMC11595998, “Characterization of a New Hsp110 Inhibitor as a Potential Antifungal” (Journal of Fungi, 2024).
Numbered stars: 1 amine (or outer) side, 2 acyl side, 3 side chain; on linkers, the order of the positions; unused ones are H or OH. Bridge positions count the residues as written; N and C are the ends. Square brackets hold non-standard residues; d marks the D form. Peptide text beside a SMILES is read from it. * marks the point of attachment. pTerphenylCO(4''-OnC5H11) = CCCCCOc1ccc(-c2ccc(-c3ccc(C(=O)*)cc3)cc2)cc1; Orn(4R-OH,5R-OH) = O=C([C@H](C[C@@H](O)[C@@H](O)N[*:3])N[*:1])[*:2]; hTyr(3S-OH,4S-OH) = N[C@H](C(=O)O)[C@H](O)[C@@H](O)c1ccc(O)cc1; Pro(3S-OH,4S-Me) = C[C@H]1CN[C@H](C(=O)O)[C@H]1O; Hyp = O=C(O)[C@@H]1C[C@@H](O)CN1

Columns and labels:
[1] = tested on: C. albicans strain SC5314; assay: Checkerboard synergy test (FICI) of 2H with common antifungals; assay type: cell-based, Candida albicans; details: combination with 2H; SC5314, YNB medium, 37 °C, 24 h; synergy FICI ≤ 0.5, additive or indifferent > 0.5 and < 2, antagonistic > 2
Experimental: The assay was carried out as published previously. SC5314, the most widely-used wild-type C. albicans strain, was obtained from Dr. Ronda Rolfes (Georgetown University). An aliquot of SC5314 was thawed and grown overnight in Sabouraud medium at 30 °C. After harvesting by centrifugation at 1200× g for 5 min, the cells were washed twice using PBS. Afterward, the inoculum was prepared in the YNB medium, a yeast synthetic medium, with an OD600 of 0.0005 (corresponding to 5 × 10^3–1 × 10^4 colony forming units (CFU)). Five common antifungals (Amphotericin B, Anidulafungin, Flucytosine, Clotrimazole, and Itraconazole) were prepared in either DMSO or ddH2O according to the manufacturer’s instructions. The antifungal drugs were serially diluted in DMSO or ddH2O and added to wells containing 100 µL inoculum in sterile 96-well culture plates. In addition, serial dilutions of 2H were added in combination with the above antifungals. Wells without any compounds were used as growth controls. Incubation at 37 °C followed, and optical density measurements at 600 nm were taken after 24 h with wells containing only medium as blanks. The fractional inhibitory concentration index (FICI) was calculated to test the synergistic effect between each of these common antifungals with 2H according to the published protocols.
A checkerboard (or chequerboard) assay was carried out to assess the fractional inhibitory concentration index (FICI). The widely-used wild-type C. albicans strain SC5314 was used. […] More antifungals may need to be examined to find potential synergistic effects with 2H.
Figure 1 Synergy testing between 2H and several common antifungal drugs (A–E); Checkerboard analysis of antifungal activity for combination of 2H and several common antifungals. The heat-map plots of relative growth (calculated by setting the growth without compounds as 100%) were presented: (A) Amphotericin B; (B) Anidulafungin; (C) Flucytosine; (D) Clotrimazole; (E) Itraconazole. Color scale for relative growth is provided on the right. (F) The Fractional Inhibitory Concentration Index (FICI) for the combination of 2H and several common antifungals. The FICI is interpreted as follows: a synergistic effect when FICI ≤ 0.5; an additive or indifferent effect when FICI > 0.5 and <2; an antagonistic effect when FICI > 2. TEXT PRINTED IN THE PICTURE: (F) Amphotericin B: FICI: 1.077±0.060 | (F) Anidulafungin: FICI: 1.108±0.084 | (F) Clotrimazole: FICI: 0.741±0.092 | (F) Flucytosine: FICI: 1.261±0.075 | (F) Itraconazole: FICI: 0.862±0.013

[2] = tested on: C. neoformans Type Strain H99; assay: Antifungal susceptibility (growth) test, MIC90; assay type: cell-based, Cryptococcus neoformans; details: H99, YNB medium, 37 °C, 48 h
Experimental: (§1) We followed the Clinical and Laboratory Standards Institute for yeasts (CLSI M27 [80]) and our previously published protocol for the determination of MIC and MFC [33]. The C. neoformans Type Strain H99 was obtained from the laboratory of Dr. Joseph Heitman (Duke University). After growing in Sabouraud medium, this strain was resuspended in 35% glycerol, aliquoted, flash-frozen in liquid nitrogen, and stored in a −80 °C freezer.
(§2) For each experiment, a 100 µL frozen aliquot of H99 was thawed and diluted into 5 mL Sabouraud medium. After being grown at 30 °C overnight, the culture was pelleted and washed twice using PBS at room temperature. The inoculum was prepared using the YNB medium, a yeast synthetic medium, with 5 × 10^3–1 × 10^4 colony forming units (CFU) (corresponding to an OD600 of 0.0005). Sterile 96-well culture plates were used for growth tests. After aliquoting 100 µL of the inoculum into each well, serial dilutions of 2H or fluconazole were added to the wells and mixed well by pipetting up and down. After shaking at 37 °C for 48 h, growth was measured by absorbance at 600 nm using a spectrophotometric plate reader. Wells with only medium were used as blanks and wells with only inoculum were used as growth controls. […]
(§3) Figure 3 2H inhibits the growth of Cryptococcus neoformans and is fungicidal. […] (B) The MIC90 and MFC of 2H were determined on C. neoformans strain H99. […]

[3] = tested on: C. albicans strain SC5314; parameters: method as in PMID 37173314; details: combination with 2H; previous test; cited from earlier work
[4] = tested on: C. neoformans Type Strain H99; assay: Viability test, minimum fungicidal concentration (MFC); assay type: cell-based, Cryptococcus neoformans
Experimental: as §1, §2, §3

In the case of `Nc1[nH]c(=O)ncc1F` [Flucytosine], the “Fractional Inhibitory Concentration Index (FICI)” value [1] is reported as 1.261±0.075.
With `Clc1ccccc1C(c1ccccc1)(c1ccccc1)n1ccnc1` [Clotrimazole] the “Fractional Inhibitory Concentration Index (FICI)” value [1] was 0.741±0.092.
With `CCCCCOc1ccc(-c2ccc(-c3ccc(C(=O)N[C@H]4C[C@@H](O)[C@@H](O)NC(=O)[C@@H]5[C@@H](O)[C@@H](C)CN5C(=O)[C@H]([C@@H](C)O)NC(=O)[C@H]([C@H](O)[C@@H](O)c5ccc(O)cc5)NC(=O)[C@@H]5C[C@@H](O)CN5C(=O)[C@H]([C@@H](C)O)NC4=O)cc3)cc2)cc1` [Anidulafungin] ({pTerphenylCO(4''-OnC5H11)}-[Orn(4R-OH,5R-OH)]T[Hyp][hTyr(3S-OH,4S-OH)]T[Pro(3S-OH,4S-Me)]; lactam 1-C) the “Fractional Inhibitory Concentration Index (FICI)” value [1] was 1.108±0.084.
With `CCC(C)n1ncn(-c2ccc(N3CCN(c4ccc(OCC5COC(Cn6cncn6)(c6ccc(Cl)cc6Cl)O5)cc4)CC3)cc2)c1=O` (centres unmarked) [Itraconazole] the “Fractional Inhibitory Concentration Index (FICI)” value [1] was 0.862±0.013.
In the case of `OC(Cn1cncn1)(Cn1cncn1)c1ccc(F)cc1F` [Fluconazole], the “MIC90 (minimum inhibitory concentration for 90% inhibition)” value [2] is listed as 16 µM, the “Synergistic effect between 2H and fluconazole” value [3] is listed as “no apparent synergistic effect” and the Fungicidal or fungistatic [4] is listed as “fungistatic”.
With `C[C@@H]1[C@H](O)[C@@H](C)/C=C/C=C/C=C/C=C/C=C/C=C/C=C/[C@H](O[C@@H]2O[C@H](C)[C@@H](O)[C@H](N)[C@@H]2O)C[C@@H]2O[C@](O)(C[C@@H](O)C[C@@H](O)[C@H](O)CC[C@@H](O)C[C@@H](O)CC(=O)O[C@H]1C)C[C@H](O)[C@H]2C(=O)O` [Amphotericin B] the “Fractional Inhibitory Concentration Index (FICI)” value [1] was 1.077±0.060.
